Test results as given in US6500800B1, “Composition and method for causing photodynamic damage to target cells” (priority 1996, dated 2002).
Like-named read-outs stand apart in the source and are kept apart here.

Test system: Human hepatoma PLC/PRF/5 cells
Assay: Photodynamic damage (PDD), survival rate of cells versus concentration after irradiation
Format: cell-based
From the text: A stands for (P10)-insulin-(chlorin e6); B stands for (β-galactosidase)-insulin-(chlorin e6); C stands for chlorin e6; […] Survival rate of human hepatoma PLC/PRF/5 cells plotted against concentration of compositions and chlorin e6 is depicted in FIGS. 2 and 3.

SMILES: C=Cc1c(C)c2cc3nc(c(CC(=O)O)c4[nH]c(cc5nc(cc1[nH]2)C(C)=C5CC)c(C)c4C(=O)O)[C@@H](CCC(=O)O)[C@@H]3C [chlorin e6]
- EC50 (irradiation dose of 12.3 kJ/m^2, read-out: EC50 value (concentration of a semi-maximal effect)): 11.5 µM
- EC50 (irradiation dose of 96 kJ/m^2, read-out: EC50 value): 0.35 µM
